Read-outs that look alike come from different tables or passages of the source.
Key:
[1] = test system: Key Broadleaf Weed and Crop Species; experiment: Post-emergent Test II herbicidal activity (Table 15); type: in vivo; settings: post-emergence, 336 h, 14 d; for pest or weed control at 35 g/ha: 35 g ai/ha; for pest or weed control at 70 g/ha: 70 g ai/ha; for pest or weed control at 140 g/ha: 140 g ai/ha
Method in brief: (§1)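 Plants grown in greenhouse (~15 h photoperiod, 23-29 °C day, 22-28 °C night) to first or second true leaf stage, then sprayed post-emergence at 187 L/ha with a high rate and 1/2×, 1/4×, 1/8× and 1/16× dilutions. Injury scored visually after 14 d, 0-100% versus untreated plants.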

[2] = test system: Key Grass and Sedge Weeds as well as Grass Crops; experiment: Post-emergent Test II herbicidal activity (Table 16); type: in vivo; settings: post-emergence, 336 h, 14 days after application; for pest or weed control at 35 g/ha: 35 g ai/ha; for pest or weed control at 70 g/ha: 70 g ai/ha; for pest or weed control at 140 g/ha: 140 g ai/ha
Method in brief: as §1

[3] = Abutilon theophrasti, velvetleaf (Abutilon theophrasti), read-out: Visual Growth Reduction (%) 14 Days After Application, ABUTH
[4] = Amaranthus retroflexus, redroot pigweed (Amaranthus retroflexus), read-out: Visual Growth Reduction (%) 14 Days After Application, AMARE
[5] = Brassica napus, oilseed rape, canola (Brassica napus), read-out: Visual Growth Reduction (%) 14 Days After Application, BRSNN
[6] = Chenopodium album, lambsquarters (Chenopodium album), read-out: Visual Growth Reduction (%) 14 Days After Application, CHEAL
[7] = Euphorbia heterophylla, wild poinsettia (Euphorbia heterophylla), read-out: Visual Growth Reduction (%) 14 Days After Application, EPHHL
[8] = Helianthus annuus, sunflower (Helianthus annuus), read-out: Visual Growth Reduction (%) 14 Days After Application, HELAN
[9] = Cyperus esculentus, yellow nutsedge (Cyperus esculentus), read-out: Visual Growth Reduction (%) 14 Days After Application CYPES
[10] = Echinochloa crus-galli, barnyardgrass (Echinochloa crus-galli), read-out: Visual Growth Reduction (%) 14 Days After Application ECHCG
[11] = Oryza sativa, rice (Oryza sativa), read-out: Visual Growth Reduction (%) 14 Days After Application ORYSA
[12] = Setaria faberi, giant foxtail (Setaria faberi), read-out: Visual Growth Reduction (%) 14 Days After Application SETFA
[13] = Triticum aestivum, wheat, spring (Triticum aestivum), read-out: Visual Growth Reduction (%) 14 Days After Application TRZAS
[14] = Zea mays, maize, corn (Zea mays), read-out: Visual Growth Reduction (%) 14 Days After Application ZEAMX

COC(=O)c1nc(-c2cccc3c2cnn3C)c(F)c(N)c1Cl [Compound 4.10]
45 to 59%: pest or weed control at 140 g/ha [1, 8]
95 to 100%: pest or weed control at 70 g/ha [1, 4] | pest or weed control at 140 g/ha [1, 4]
170 to 175 °C: melting point
0 to 29%: pest or weed control at 35 g/ha [1, 3] | pest or weed control at 70 g/ha [1, 3] | pest or weed control at 140 g/ha [1, 3] | pest or weed control at 35 g/ha [1, 4] | pest or weed control at 35 g/ha [1, 5] | pest or weed control at 70 g/ha [1, 5] | pest or weed control at 140 g/ha [1, 5] | pest or weed control at 35 g/ha [1, 6] | pest or weed control at 70 g/ha [1, 6] | pest or weed control at 140 g/ha [1, 6] | pest or weed control at 35 g/ha [1, 7] | pest or weed control at 70 g/ha [1, 7] | pest or weed control at 140 g/ha [1, 7] | pest or weed control at 35 g/ha [1, 8] | pest or weed control at 70 g/ha [1, 8] | pest or weed control at 35 g/ha [2, 9] | pest or weed control at 70 g/ha [2, 9] | pest or weed control at 140 g/ha [2, 9] | pest or weed control at 35 g/ha [2, 10] | pest or weed control at 70 g/ha [2, 10] | pest or weed control at 140 g/ha [2, 10] | pest or weed control at 35 g/ha [2, 11] | pest or weed control at 70 g/ha [2, 11] | pest or weed control at 140 g/ha [2, 11] | pest or weed control at 35 g/ha [2, 12] | pest or weed control at 70 g/ha [2, 12] | pest or weed control at 140 g/ha [2, 12] | pest or weed control at 35 g/ha [2, 13] | pest or weed control at 70 g/ha [2, 13] | pest or weed control at 140 g/ha [2, 13] | pest or weed control at 35 g/ha [2, 14] | pest or weed control at 70 g/ha [2, 14] | pest or weed control at 140 g/ha [2, 14]
